{
  "source": "paper PMC9340777",
  "about": "(Journal of Medicinal Chemistry, 2022)",
  "key": {"physchem [1]": {"assay": "physchem", "details": "buffer"}, "in vitro [2]": {"assay": "in vitro", "details": "rat, pH 7.2, rat blood T1/2 (h) pH 7.2"}, "in vitro [3]": {"assay": "in vitro", "details": "male, Wistar Han, rat, tissue homogenate, pH 6.8"}, "[4]": {"details": "Han Wistar, rat, pH 6.8"}, "physchem [5]": {"assay": "physchem", "details": "buffer, pH 6.5"}, "[6]": {"details": "rat, in vivo"}, "[7]": {"details": "pH 6.5"}},
  "data": [
    {"smiles": "CC(OC(=O)[C@@H](NC(=O)[C@@H](N)CCCCN)C(C)(C)C)OC(=O)N1CCC(OC(=O)C(O)(c2ccccc2)c2ccccc2)CC1.Cl.Cl", "note": "(stereo partly drawn) [Compound 22, 1-(((S)-2-((S)-2,6-Diaminohexanamido)-3,3-dimethylbutanoyl)oxy)ethyl-4-(2-hydroxy-2,2-diphenylacetoxy)piperidine-1-carboxylate Dihydrochloride]", "values": [
      {"measurement": "half-life", "setting": "physchem [1]; pH 6.5", "value": "186 ± 0.79", "unit": "h"},
      {"measurement": "half-life", "setting": "physchem [1]; pH 7.4", "value": "67 ± 0.23", "unit": "h"},
      {"measurement": "half-life", "setting": "in vitro [2]", "value": 0.2, "unit": "h"},
      {"measurement": "rat blood T1/2 (h) pH 7.2", "value": "0.1 ± 0.01", "unit": "h"},
      {"measurement": "half-life", "setting": "in vitro [3]", "value": "2.5 ± 0.07", "unit": "h"},
      {"measurement": "formation of monobasic intermediate (peptide amide bond hydrolysis)", "setting": "[4]", "value": "clearly showing the intermediate 15"}
    ]},
    {"smiles": "CC(OC(=O)[C@@H](N)C(C)C)OC(=O)N1CCC(OC(=O)C(O)(c2ccccc2)c2ccccc2)CC1.Cl", "note": "(stereo partly drawn) [Compound 14, 1-((L-Valyl)oxy)ethyl-4-(2-hydroxy-2,2-diphenylacetoxy)piperidine-1-carboxylate Hydrochloride]", "values": [
      {"measurement": "half-life", "setting": "physchem [5]", "value": 15.8, "unit": "h"}
    ]},
    {"smiles": "CC(OC(=O)[C@H](NC(=O)[C@@H](N)CCCCN)C(C)(C)C)OC(=O)N1CCC(OC(=O)C(O)(c2ccccc2)c2ccccc2)CC1.Cl.Cl", "note": "(stereo partly drawn) [Compound 23, 1-(((R)-2-((S)-2,6-Diaminohexanamido)-3,3-dimethylbutanoyl)oxy)ethyl-4-(2-hydroxy-2,2-diphenylacetoxy)piperidine-1-carboxylate Dihydrochloride]", "values": [
      {"measurement": "half-life", "setting": "physchem [1]; pH 6.5", "value": "58.6 ± 4.91", "unit": "h"},
      {"measurement": "half-life", "setting": "physchem [1]; pH 7.4", "value": "36.6 ± 1.7", "unit": "h"},
      {"measurement": "23 in lung as % of the total dose delivered (calculated mass balance)", "setting": "[6]; male, Sprague Dawley", "value": 54, "unit": "%"},
      {"measurement": "ratio of 23 to 1 in lung", "setting": "[6]; male, Sprague Dawley", "value": "~27:1"},
      {"measurement": "total lung concentration of 23", "setting": "[6]; male, Sprague Dawley, 0.2 mg/kg", "value": 31.2, "unit": "µM"},
      {"measurement": "plasma concentration of 23 in words", "setting": "[6]; 0.2 mg/kg", "value": "only a very low concentration"},
      {"measurement": "appearance in dosing formulation", "setting": "[7]", "value": "clear solution"},
      {"measurement": "half-life", "setting": "in vitro [2]", "value": "7 ± 0.82", "unit": "h"},
      {"measurement": "half-life", "setting": "in vitro [3]", "value": "25.4 ± 1.94", "unit": "h"},
      {"measurement": "formation of monobasic intermediate (peptide amide bond hydrolysis)", "setting": "[4]", "value": "no evidence of intermediate 18"}
    ]},
    {"smiles": "CC(OC(=O)[C@@H](N)C(C)(C)C)OC(=O)N1CCC(OC(=O)C(O)(c2ccccc2)c2ccccc2)CC1.Cl", "note": "(stereo partly drawn) [Compound 15, 1-(((S)-2-Amino-3,3-dimethylbutanoyl)oxy)ethyl-4-(2-hydroxy-2,2-diphenylacetoxy)piperidine-1-carboxylate Hydrochloride]", "values": [
      {"measurement": "half-life", "setting": "physchem [5]", "value": 12.2, "unit": "h"}
    ]},
    {"smiles": "CC(OC(=O)[C@@H](N)CCCCN)OC(=O)N1CCC(OC(=O)C(O)(c2ccccc2)c2ccccc2)CC1.Cl.Cl", "note": "(stereo partly drawn) [Compound 17, 1-((L-Lysyl)oxy)ethyl-4-(2-hydroxy-2,2-diphenylacetoxy)piperidine-1-carboxylate Dihydrochloride]", "values": [
      {"measurement": "half-life", "setting": "physchem [1]; pH 6.5", "value": "3.9 ± 0.05", "unit": "h"},
      {"measurement": "half-life", "setting": "physchem [1]; pH 7.4", "value": "1.1 ± 0.02", "unit": "h"}
    ]},
    {"smiles": "CC(OC(=O)[C@H](NC(=O)[C@@H](N)CCCCN)C(C)C)OC(=O)N1CCC(OC(=O)C(O)(c2ccccc2)c2ccccc2)CC1.Cl.Cl", "note": "(stereo partly drawn) [Compound 26, 1-((L-Lysyl-D-valyl)oxy)ethyl-4-(2-hydroxy-2,2-diphenylacetoxy)piperidine-1-carboxylate Dihydrochloride]", "values": [
      {"measurement": "half-life", "setting": "physchem [1]; pH 6.5", "value": "8.7 ± 1.06", "unit": "h"},
      {"measurement": "half-life", "setting": "physchem [1]; pH 7.4", "value": "1.8 ± 0.2", "unit": "h"},
      {"measurement": "half-life", "setting": "in vitro [2]", "value": "0.6 ± 0.07", "unit": "h"},
      {"measurement": "half-life", "setting": "in vitro [3]", "value": "3.4 ± 0.08", "unit": "h"}
    ]},
    {"smiles": "CC(OC(=O)[C@@H]1CCCN1)OC(=O)N1CCC(OC(=O)C(O)(c2ccccc2)c2ccccc2)CC1.Cl", "note": "(stereo partly drawn) [Compound 9, 1-((L-Prolyl)oxy)ethyl-4-(2-hydroxy-2,2-diphenylacetoxy)piperidine-1-carboxylate Hydrochloride]", "values": [
      {"measurement": "half-life", "setting": "physchem [5]", "value": 0.14, "unit": "h"}
    ]},
    {"smiles": "CC[C@H](C)[C@H](N)C(=O)N[C@@H](CCCCN)C(=O)OC(C)OC(=O)N1CCC(OC(=O)C(O)(c2ccccc2)c2ccccc2)CC1.Cl.Cl", "note": "(stereo partly drawn) [Compound 27, 1-((L-Isoleucyl-L-lysyl)oxy)ethyl-4-(2-hydroxy-2,2-diphenylacetoxy)piperidine-1-carboxylate Dihydrochloride]", "values": [
      {"measurement": "half-life", "setting": "physchem [1]; pH 6.5", "value": "4.9 ± 0.06", "unit": "h"},
      {"measurement": "half-life", "setting": "physchem [1]; pH 7.4", "value": "0.9 ± 0.04", "unit": "h"}
    ]},
    {"smiles": "CC(OC(=O)[C@@H](NC(=O)[C@@H](N)CCCCN)C(C)C)OC(=O)N1CCC(OC(=O)C(O)(c2ccccc2)c2ccccc2)CC1.Cl.Cl", "note": "(stereo partly drawn) [Compound 25, 1-((L-Lysyl-L-valyl)oxy)ethyl-4-(2-hydroxy-2,2-diphenylacetoxy)piperidine-1-carboxylate Dihydrochloride]", "values": [
      {"measurement": "half-life", "setting": "physchem [1]; pH 6.5", "value": "14.4 ± 1.68", "unit": "h"},
      {"measurement": "half-life", "setting": "physchem [1]; pH 7.4", "value": "4.4 ± 0.39", "unit": "h"},
      {"measurement": "half-life", "setting": "in vitro [3]", "value": "0.6 ± 0.09", "unit": "h"}
    ]},
    {"smiles": "CC(OC(=O)CCCCN)OC(=O)N1CCC(OC(=O)C(O)(c2ccccc2)c2ccccc2)CC1.Cl", "note": "(stereo not drawn) [Compound 6, 1-((5-Aminopentanoyl)oxy)ethyl-4-(2-hydroxy-2,2-diphenylacetoxy)piperidine-1-carboxylate Hydrochloride]", "values": [
      {"measurement": "half-life", "setting": "physchem [5]", "value": "< 0.01", "unit": "h"}
    ]},
    {"smiles": "CC[C@H](C)[C@H](N)C(=O)OC(C)OC(=O)N1CCC(OC(=O)C(O)(c2ccccc2)c2ccccc2)CC1.Cl", "note": "(stereo partly drawn) [Compound 16, 1-((L-Isoleucyl)oxy)ethyl-4-(2-hydroxy-2,2-diphenylacetoxy)piperidine-1-carboxylate Hydrochloride]", "values": [
      {"measurement": "half-life", "setting": "physchem [5]", "value": 13.9, "unit": "h"}
    ]},
    {"smiles": "CC(C)C[C@H](N)C(=O)OC(C)OC(=O)N1CCC(OC(=O)C(O)(c2ccccc2)c2ccccc2)CC1.Cl", "note": "(stereo partly drawn) [Compound 13, 1-((L-Leucyl)oxy)ethyl-4-(2-hydroxy-2,2-diphenylacetoxy)piperidine-1-carboxylate Hydrochloride]", "values": [
      {"measurement": "half-life", "setting": "physchem [5]", "value": 5.09, "unit": "h"}
    ]},
    {"smiles": "CC(OC(=O)[C@H](CCCCN)NC(=O)CCN)OC(=O)N1CCC(OC(=O)C(O)(c2ccccc2)c2ccccc2)CC1.Cl.Cl", "note": "(stereo partly drawn) [Compound 28, 1-(((3-Aminopropanoyl)-L-lysyl)oxy)ethyl-4-(2-hydroxy-2,2-diphenylacetoxy)piperidine-1-carboxylate Dihydrochloride]", "values": [
      {"measurement": "half-life", "setting": "physchem [1]; pH 6.5", "value": "102 ± 3.86", "unit": "h"},
      {"measurement": "half-life", "setting": "physchem [1]; pH 7.4", "value": "11.5 ± 0.73", "unit": "h"},
      {"measurement": "half-life", "setting": "in vitro [3]", "value": "0.7 ± 0.21", "unit": "h"}
    ]}
  ]
}
